Laboratory results from publication PMC8157871, “Synthesis, Anticancer Screening of Some Novel Trimethoxy Quinazolines and VEGFR2, EGFR Tyrosine Kinase Inhibitors Assay; Molecular Docking Studies” (Molecules, 2021).

Experiments:
MDA cells = experiment: Cytotoxicity against MDA cell line; conditions: read-out: Cytotoxicity IC50 MDA
Hela cells = experiment: Cytotoxicity against Hela cell line; conditions: read-out: Cytotoxicity IC50 Hela
A549 cell line = experiment: Cytotoxicity against A549 cell line; conditions: read-out: Cytotoxicity IC50 A549
EGFR = EGFR (Homo sapiens, UniProt P00533); experiment: EGFR enzyme inhibitory activity
EGFR, sequence (P00533 25-1210): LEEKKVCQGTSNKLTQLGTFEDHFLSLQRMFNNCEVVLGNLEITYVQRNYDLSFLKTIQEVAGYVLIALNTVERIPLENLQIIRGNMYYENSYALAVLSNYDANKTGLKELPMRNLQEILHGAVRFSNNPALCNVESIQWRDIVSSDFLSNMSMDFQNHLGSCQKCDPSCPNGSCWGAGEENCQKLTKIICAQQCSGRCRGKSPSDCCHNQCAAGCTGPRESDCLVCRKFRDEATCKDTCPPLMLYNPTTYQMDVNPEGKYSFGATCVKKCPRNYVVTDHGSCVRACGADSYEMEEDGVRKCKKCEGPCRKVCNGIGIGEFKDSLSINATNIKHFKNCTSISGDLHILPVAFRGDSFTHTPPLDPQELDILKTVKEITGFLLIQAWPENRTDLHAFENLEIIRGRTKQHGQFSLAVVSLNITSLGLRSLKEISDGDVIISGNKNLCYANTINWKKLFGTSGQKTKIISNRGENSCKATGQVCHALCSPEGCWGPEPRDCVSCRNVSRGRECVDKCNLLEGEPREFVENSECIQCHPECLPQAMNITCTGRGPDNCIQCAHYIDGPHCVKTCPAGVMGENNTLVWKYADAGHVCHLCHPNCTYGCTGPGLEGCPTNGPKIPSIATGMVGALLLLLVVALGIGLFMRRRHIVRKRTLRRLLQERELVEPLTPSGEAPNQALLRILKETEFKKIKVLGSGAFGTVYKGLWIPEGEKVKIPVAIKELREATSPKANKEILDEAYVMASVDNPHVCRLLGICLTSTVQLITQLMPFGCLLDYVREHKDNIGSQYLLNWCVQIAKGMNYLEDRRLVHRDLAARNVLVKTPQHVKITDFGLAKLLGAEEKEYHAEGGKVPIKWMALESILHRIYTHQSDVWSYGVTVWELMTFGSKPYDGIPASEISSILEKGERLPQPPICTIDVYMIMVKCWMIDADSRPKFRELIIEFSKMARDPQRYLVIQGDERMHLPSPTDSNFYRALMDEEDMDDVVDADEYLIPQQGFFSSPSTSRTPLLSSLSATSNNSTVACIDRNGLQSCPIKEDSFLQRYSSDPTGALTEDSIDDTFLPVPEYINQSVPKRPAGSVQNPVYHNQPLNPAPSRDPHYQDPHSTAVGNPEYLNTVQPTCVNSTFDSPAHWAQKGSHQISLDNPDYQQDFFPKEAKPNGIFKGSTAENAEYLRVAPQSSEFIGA
Experimental: (§1) The synthesized compounds were evaluated for anticancer activity by adapting a reported procedure [29, 30, 31, 32, 33] using two enzymes, VEGFR2 and EGFR, as well as three cell lines.

VEGFR2 = VEGFR2 (Homo sapiens, UniProt P35968); experiment: VEGFR2 enzyme inhibitory activity
VEGFR2, sequence (P35968 20-1356): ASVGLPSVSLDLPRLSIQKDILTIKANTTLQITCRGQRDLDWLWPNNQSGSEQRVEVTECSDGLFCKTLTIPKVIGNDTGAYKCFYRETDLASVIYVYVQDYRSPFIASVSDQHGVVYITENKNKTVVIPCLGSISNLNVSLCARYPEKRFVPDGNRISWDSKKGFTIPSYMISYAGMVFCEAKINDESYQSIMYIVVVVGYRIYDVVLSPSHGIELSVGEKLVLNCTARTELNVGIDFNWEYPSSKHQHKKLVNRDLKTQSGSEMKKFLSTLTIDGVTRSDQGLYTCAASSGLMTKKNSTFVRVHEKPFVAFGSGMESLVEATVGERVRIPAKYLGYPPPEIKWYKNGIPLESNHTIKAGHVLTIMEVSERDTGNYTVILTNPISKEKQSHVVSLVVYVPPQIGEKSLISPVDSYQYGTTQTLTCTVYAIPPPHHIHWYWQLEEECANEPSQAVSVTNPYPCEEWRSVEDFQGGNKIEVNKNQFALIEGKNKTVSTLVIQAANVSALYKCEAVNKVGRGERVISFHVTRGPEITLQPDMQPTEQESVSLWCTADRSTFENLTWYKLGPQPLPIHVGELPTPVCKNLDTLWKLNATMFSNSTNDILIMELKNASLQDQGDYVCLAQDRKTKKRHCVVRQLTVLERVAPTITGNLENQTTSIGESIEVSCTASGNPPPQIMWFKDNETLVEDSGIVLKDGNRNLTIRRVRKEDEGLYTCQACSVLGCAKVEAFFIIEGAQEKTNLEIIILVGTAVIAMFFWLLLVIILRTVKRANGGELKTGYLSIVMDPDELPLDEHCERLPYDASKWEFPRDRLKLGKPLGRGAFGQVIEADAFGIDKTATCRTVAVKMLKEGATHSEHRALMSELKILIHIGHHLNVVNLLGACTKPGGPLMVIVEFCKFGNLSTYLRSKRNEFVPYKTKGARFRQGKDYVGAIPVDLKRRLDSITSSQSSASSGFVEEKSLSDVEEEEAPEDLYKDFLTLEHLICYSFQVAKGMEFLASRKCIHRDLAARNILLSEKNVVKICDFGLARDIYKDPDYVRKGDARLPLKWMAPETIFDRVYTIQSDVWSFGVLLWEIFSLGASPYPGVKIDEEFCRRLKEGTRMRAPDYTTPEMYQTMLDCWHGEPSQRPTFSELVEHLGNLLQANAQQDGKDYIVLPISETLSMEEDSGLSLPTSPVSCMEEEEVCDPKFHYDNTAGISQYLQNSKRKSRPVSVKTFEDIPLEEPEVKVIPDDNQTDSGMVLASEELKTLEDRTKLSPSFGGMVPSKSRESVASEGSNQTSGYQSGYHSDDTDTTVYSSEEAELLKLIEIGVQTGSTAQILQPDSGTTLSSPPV
Experimental: as §1

[1] = relative to docetaxel, from IC50 values

| Structure (SMILES) | melting point [°C] | IC50 (MDA cells) [µM] | IC50 (Hela cells) [µM] | IC50 (A549 cell line) [µM] | IC50 (EGFR) [µM] | inhibitory activity for enzyme EGFR compared to the reference drug (EGFR; [1]) [%] | IC50 (VEGFR2) [µM] | inhibitory activity for enzyme VEGFR2 compared to the reference drug (VEGFR2; [1]) [%] |
| --- | --- | --- | --- | --- | --- | --- | --- | --- |
| COc1cc(-c2nc3c(OC)cccc3c(=O)o2)cc(OC)c1OC [Compound 3, 8-methoxy-2-trimethoxyphenyl-4H-benzo[d](1,3)oxazin-4-one] | 182 to 184 | 17.4 ± 0.5 | 66.5 ± 1.74 | 43.6 ± 1.1 |  |  |  |  |
| COc1cc(-c2nc3c(OC)cccc3c(=O)n2N)cc(OC)c1OC [Compound 4, 3-amino-8-methoxy-2-trimethoxyphenylquanazoline-4(3H)-one] | 182 to 184 | 4.12 ± 0.1 | 29.8 ± 0.78 | 18 ± 0.5 |  |  |  |  |
| COc1cc(-c2nc3c(OC)cccc3c(=O)[nH]2)cc(OC)c1OC [Compound 5, 8-methoxy-2-trimethoxyphenylquanazoline-4(3H)-one] | 242 to 244 | 4.39 ± 0.1 | 12.9 ± 0.34 | 26.3 ± 0.7 |  |  |  |  |
| COc1cccc(C(N)=O)c1NC(=O)c1cc(OC)c(OC)c(OC)c1 [Compound 6] | 132 to 134 | 0.79 ± 0.04 | 2.8 ± 0.07 | 81 ± 2.1 | 0.106 ± 0.00222 | ~53 | 0.0981 ± 0.00293 | ~91 |
| COc1cccc(C(=O)NN)c1NC(=O)c1cc(OC)c(OC)c(OC)c1 [Compound 7, 3-methoxy-2-(trimethoxybenzamido)-benzoylhydrazide] | 195 to 197 | 9 ± 0.2 | 18.7 ± 0.49 | 46.3 ± 1.2 |  |  |  |  |
| COc1cccc(C(=O)NNS(=O)(=O)c2ccccc2)c1NC(=O)c1cc(OC)c(OC)c(OC)c1 [Compound 8, 3-methoxy-2-(trimethoxybenzamido)-N-[benzenesulphonyl]benzoylhydrazide] | 263 to 265 | 11.7 ± 0.3 | 4.94 ± 0.13 | 13 ± 0.3 |  |  |  |  |
| COc1cc(-c2nc3c(OC)cccc3c(=O)n2NS(=O)(=O)c2ccccc2)cc(OC)c1OC [Compound 9, 3-benzenesulfamoyl-8-methoxy-2-trimethoxyphenylquanazoline-4(3H)-one] | 244 to 246 | 3.42 ± 0.1 | 11.7 ± 0.31 | 19.9 ± 0.5 |  |  |  |  |
| COc1cc(-c2nc3c(OC)cccc3c(=O)n2C)cc(OC)c1OC [Compound 10, 3-methyl-8-methoxy-2-trimethoxyphenylquanazoline-4(3H)-one] | 218 to 220 | 7.77 ± 0.2 | 3.98 ± 0.1 | 12.3 ± 0.3 |  |  |  |  |
| COc1cc(-c2nc3c(OC)cccc3c(=O)n2-c2cc(OC)c(OC)c(OC)c2)cc(OC)c1OC [Compound 11] | 237 to 239 | 7.06 ± 0.2 | 12 ± 0.31 | 4.03 ± 0.1 |  |  |  |  |
| CC(=O)O[C@@]12CO[C@@H]1C[C@H](O)[C@@]1(C)C(=O)[C@H](O)C3=C(C)[C@@H](OC(=O)[C@H](O)[C@@H](NC(=O)OC(C)(C)C)c4ccccc4)C[C@@](O)([C@@H](OC(=O)c4ccccc4)[C@H]21)C3(C)C [Docetaxel, docetaxel, reference compound] |  | 3.98 ± 0.08 | 9.65 ± 0.2 | 10.8 ± 0.23 | 0.0561 ± 0.00117 |  | 0.0893 ± 0.00267 |  |
